Results on five compounds are retold here after article PMC3203607 (Nucleic Acids Research, 2011).

Holding throughout (type): binding
The target in experiment [1] is T1, Ascaris eIF4E-3 (Ascaris suum, UniProt Q6PKX2).
T1 sequence (Q6PKX2 1-236): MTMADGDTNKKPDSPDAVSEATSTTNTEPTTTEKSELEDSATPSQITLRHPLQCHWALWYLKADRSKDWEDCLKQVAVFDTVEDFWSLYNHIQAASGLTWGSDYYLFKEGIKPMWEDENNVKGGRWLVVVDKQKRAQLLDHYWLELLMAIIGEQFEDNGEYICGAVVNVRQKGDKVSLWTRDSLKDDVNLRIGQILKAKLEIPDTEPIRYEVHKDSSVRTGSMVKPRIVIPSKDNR
Put plainly: fluorescence titration. Particulars: read-out: KD (μM) / Ascaris eIF4E-3; 50 mM HEPES/KOH pH 7.20, 200 mM KCl, 1 mM DTT, 0.5 mM EDTA, 20 °C.

A further experiment concerns the target T2, Ascaris eIF4E-3 (49–236) (Ascaris suum, UniProt Q6PKX2).
T2 sequence (Q6PKX2 49-236): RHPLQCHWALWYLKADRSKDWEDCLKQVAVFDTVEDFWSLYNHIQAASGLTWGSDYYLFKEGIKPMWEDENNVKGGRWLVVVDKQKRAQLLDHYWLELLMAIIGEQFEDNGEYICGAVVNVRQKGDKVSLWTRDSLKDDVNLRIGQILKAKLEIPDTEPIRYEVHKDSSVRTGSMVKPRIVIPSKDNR
Put plainly: isothermal titration calorimetry. Background: ITC needs no label: the signal is the heat of the interaction.

A further experiment addresses Human eIF4E (28–217) (Homo sapiens, UniProt P06730). Put plainly: fluorescence titration.
Experiment [2] addresses T1, Ascaris eIF4E-3. Put plainly: isothermal titration calorimetry. Particulars: 20 mM HEPES pH 7.4, 1 mM EDTA, 100 mM KCl, 20 °C; single-site model.
Experiment [3] deals with T3, Ascaris eIF4E-3 (Ascaris suum, UniProt Q6PKX2, E116D).
T3 sequence (Q6PKX2 1-236 E116D): T1 sequence (Q6PKX2 1-236)
Put plainly: isothermal titration calorimetry. Particulars: 20 mM HEPES pH 7.4, 1 mM EDTA, 100 mM KCl, 20 °C.

The target in another experiment is Human eIF4E (Homo sapiens, UniProt P06730). Put plainly: isothermal titration calorimetry.
Chain of Human eIF4E (P06730 whole entry): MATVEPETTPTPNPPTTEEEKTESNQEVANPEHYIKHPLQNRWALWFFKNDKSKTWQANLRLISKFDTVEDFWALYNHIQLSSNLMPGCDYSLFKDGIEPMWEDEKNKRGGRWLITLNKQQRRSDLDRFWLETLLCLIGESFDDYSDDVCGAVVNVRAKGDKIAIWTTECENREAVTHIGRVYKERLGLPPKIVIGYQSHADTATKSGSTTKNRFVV

Chain of Human eIF4E (28–217) (P06730 28-217): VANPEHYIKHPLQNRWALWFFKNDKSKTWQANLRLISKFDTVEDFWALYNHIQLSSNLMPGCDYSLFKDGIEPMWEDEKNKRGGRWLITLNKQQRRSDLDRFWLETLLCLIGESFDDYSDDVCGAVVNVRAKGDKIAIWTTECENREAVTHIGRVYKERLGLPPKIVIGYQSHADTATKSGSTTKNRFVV

Regarding `C[n+]1cn([C@@H]2O[C@H](COP(=O)(O)OP(=O)(O)OP(=O)(O)OC[C@H]3O[C@@H](n4cnc5c(=O)[nH]c(N)nc54)[C@H](O)[C@@H]3O)[C@@H](O)[C@H]2O)c2nc(N)[nH]c(=O)c21` [m^7GpppG], the values for the Kd on Ascaris eIF4E-3 [1] and at Ascaris eIF4E-3 (49–236) were 0.787 ± 0.025 µM and 0.75 ± 0.19 µM, respectively.
On to `CN(C)c1nc2c(c(=O)[nH]1)[n+](C)cn2[C@@H]1O[C@H](COP(=O)(O)OP(=O)(O)OP(=O)(O)OC[C@H]2O[C@@H](n3cnc4c(=O)[nH]c(N)nc43)[C@H](O)[C@@H]2O)[C@@H](O)[C@H]1O` [m^2,2,7GpppG], for which, at Human eIF4E (28–217), the Kd worked out at 3.1 ± 1.1 µM.
`CN(C)c1nc2c(c(=O)[nH]1)[n+](C)cn2[C@@H]1O[C@H](COP(=O)(O)OP(=O)(O)OP(=O)(O)O)[C@@H](O)[C@H]1O` [m^2,2,7GTP]: the Kd came to 8.4 ± 1 µM at Ascaris eIF4E-3 [2], 7 ± 0.1 µM on Ascaris eIF4E-3 [3], 4.56 ± 2.1 µM on Human eIF4E and 12.2 ± 3.9 µM on Ascaris eIF4E-3 (49–236).
As to `C[n+]1cn([C@@H]2O[C@H](COP(=O)(O)OP(=O)(O)OP(=O)(O)O)[C@@H](O)[C@H]2O)c2nc(N)[nH]c(=O)c21` [m^7GTP], the values for the Kd at Ascaris eIF4E-3 [2], on Ascaris eIF4E-3 [3] and at Ascaris eIF4E-3 (49–236) were 0.24 ± 0.04 µM, 1.98 ± 0.2 µM and 0.17 ± 0.05 µM, respectively.
As to `Nc1nc2c(ncn2[C@@H]2O[C@H](COP(=O)(O)OP(=O)(O)OP(=O)(O)O)[C@@H](O)[C@H]2O)c(=O)[nH]1` [GTP], the Kd at Ascaris eIF4E-3 [1] turned out to be 83 ± 14 µM.
